Results on 13 compounds are retold here after patent US9309301B2 (priority 2011, dated 2016).

Like-named read-outs stand apart in the source and are kept apart here. Square brackets hold non-standard residues; d marks the D form. Primed or numbered codes have the meaning given here. Ends that are not written are not given here. 40K‑TE PEG(4) = 40 kDa PEG bound to Cys thiol via thioether (from iodoacetyl-PEG); Aib = CC(C)(N)C(=O)O

What all share (assay type): cell-based
One experiment concerns the target T1, GLP-1 receptor (Homo sapiens, UniProt P43220).
T1 construct: expressed in transfected cells; host or cells: HEK293
The experiment is described as follows: cAMP induction, firefly luciferase reporter assay in HEK293 cells co-transfected with GLP-1 receptor. As for the experimental part: (§1) The ability of each peptide to induce cAMP was measured in a firefly luciferase-based reporter assay. […] At the end of the incubation, 100 μL of LucLite luminescence substrate reagent (Perkin Elmer, Wellesley, Mass.) were added to each well. […] In some instances, the in vitro agonist activity at the GIP receptor was also tested.

Another experiment deals with T2, glucagon receptor (Homo sapiens, UniProt P47871).
T2 construct: expressed in transfected cells; host or cells: HEK293
T2 sequence (P47871 26-477, species assumed): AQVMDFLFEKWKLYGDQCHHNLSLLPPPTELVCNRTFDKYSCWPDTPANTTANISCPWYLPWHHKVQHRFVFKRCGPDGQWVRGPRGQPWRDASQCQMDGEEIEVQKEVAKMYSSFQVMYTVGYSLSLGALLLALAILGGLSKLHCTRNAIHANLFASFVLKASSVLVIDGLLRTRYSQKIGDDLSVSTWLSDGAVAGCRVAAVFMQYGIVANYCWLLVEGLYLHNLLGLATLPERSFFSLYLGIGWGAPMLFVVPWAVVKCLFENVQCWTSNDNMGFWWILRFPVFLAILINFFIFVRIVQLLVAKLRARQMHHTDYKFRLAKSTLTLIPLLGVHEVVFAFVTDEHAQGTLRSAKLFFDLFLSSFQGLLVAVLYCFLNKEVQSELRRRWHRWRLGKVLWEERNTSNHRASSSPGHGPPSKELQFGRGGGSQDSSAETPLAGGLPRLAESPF
The experiment is described as follows: cAMP induction, firefly luciferase reporter assay in HEK293 cells co-transfected with glucagon receptor. As to the method: as §1

Another experiment concerns the target T3, GIP receptor (Homo sapiens, UniProt P48546).
T3 construct: expressed in transfected cells; host or cells: HEK293
T3 sequence (P48546 22-466): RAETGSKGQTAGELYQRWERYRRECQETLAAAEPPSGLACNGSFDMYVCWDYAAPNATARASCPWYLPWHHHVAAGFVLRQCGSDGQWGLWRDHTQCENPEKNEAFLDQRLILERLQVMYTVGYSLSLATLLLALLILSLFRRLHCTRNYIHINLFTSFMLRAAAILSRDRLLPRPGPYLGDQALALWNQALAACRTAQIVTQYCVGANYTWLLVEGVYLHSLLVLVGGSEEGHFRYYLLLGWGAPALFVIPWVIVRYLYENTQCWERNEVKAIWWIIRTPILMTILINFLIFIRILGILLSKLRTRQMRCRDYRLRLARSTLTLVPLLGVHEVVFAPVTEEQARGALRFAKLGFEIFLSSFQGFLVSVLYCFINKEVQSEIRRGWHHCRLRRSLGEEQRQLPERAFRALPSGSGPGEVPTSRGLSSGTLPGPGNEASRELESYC
Nature of the experiment: in vitro agonist activity at the GIP receptor (cAMP induction, luciferase reporter, HEK293 cells). As to conditions: CRE-luciferase reporter. As to the method:
It is understood that a lower EC50 indicates higher activity or potency at the receptor. […] The ability of each peptide to induce cAMP was measured in a firefly luciferase-based reporter assay. […] At the end of the incubation, 100 μL of LucLite luminescence substrate reagent (Perkin Elmer, Wellesley, Mass.) were added to each well. […] In some instances, the in vitro agonist activity at the GIP receptor was also tested.

Setting [1] is: CRE-luciferase reporter, 5 hours incubation.
Setting [2] is: read-out: EC50 (nM) at GLP-1 receptor, CRE-luciferase reporter, 5 hours incubation.
[3] abbreviates: read-out: EC50 (nM) at glucagon receptor, CRE-luciferase reporter, 5 hours incubation.

T1 sequence (P43220 24-463): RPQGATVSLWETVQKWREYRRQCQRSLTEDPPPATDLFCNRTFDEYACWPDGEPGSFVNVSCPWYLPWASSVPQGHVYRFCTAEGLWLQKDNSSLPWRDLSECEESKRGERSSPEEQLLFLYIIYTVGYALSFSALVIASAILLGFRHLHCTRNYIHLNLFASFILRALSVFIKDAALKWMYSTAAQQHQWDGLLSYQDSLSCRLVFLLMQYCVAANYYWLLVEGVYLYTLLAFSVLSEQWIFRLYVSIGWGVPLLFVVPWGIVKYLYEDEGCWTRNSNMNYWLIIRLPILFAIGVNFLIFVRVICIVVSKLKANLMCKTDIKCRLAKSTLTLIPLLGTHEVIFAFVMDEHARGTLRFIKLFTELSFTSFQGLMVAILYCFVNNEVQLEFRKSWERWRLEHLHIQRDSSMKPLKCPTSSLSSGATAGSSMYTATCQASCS

In the case of `CC(C)C[C@H](NC(=O)[C@H](CC(C)C)NC(=O)[C@H](Cc1c[nH]c2ccccc12)NC(=O)[C@H](CCC(N)=O)NC(=O)[C@@H](NC(=O)[C@H](Cc1ccccc1)NC(=O)[C@H](CC(=O)O)NC(=O)[C@H](CCC(N)=O)NC(=O)[C@H](C)NC(=O)[C@H](C)NC(=O)[C@H](CCCNC(=N)N)NC(=O)[C@H](CCC(=O)O)NC(=O)[C@H](CC(=O)O)NC(=O)[C@H](CC(C)C)NC(=O)[C@H](Cc1ccc(O)cc1)NC(=O)[C@H](CCCCN)NC(=O)[C@H](CO)NC(=O)[C@H](CCCCNC(=O)CCC(=O)c1ccccc1)NC(=O)[C@H](CC(=O)O)NC(=O)[C@H](CO)NC(=O)[C@@H](NC(=O)[C@H](Cc1ccccc1)NC(=O)[C@@H](NC(=O)CNC(=O)[C@H](CCC(N)=O)NC(=O)[C@@H](CO)NC(=O)[C@@H](N)Cc1c[nH]cn1)[C@@H](C)O)[C@@H](C)O)C(C)C)C(=O)N[C@@H](CC(=O)O)C(=O)NCC(=O)NCC(=O)N1CCC[C@H]1C(=O)N[C@@H](CO)C(=O)N[C@@H](CO)C(=O)NCC(=O)N[C@@H](C)C(=O)N1CCC[C@H]1C(=O)N1CCC[C@H]1C(=O)N1CCC[C@H]1C(=O)N[C@@H](CO)C(N)=O` [compound 49], the results for the EC50 at GLP-1 receptor (setting [1]) and on glucagon receptor (setting [1]) were 0.01 nM and 0.063 nM, respectively.

In the case of “45 (H[Aib]QGTFTSDYSKYLDEKRA[Aib]EFVC(40K‑TE PEG(4))WLLDT-OH) [compound 45]”, in the experiment with GIP receptor, the “EC50 (nM) at GIP receptor” value is “no activity”.

With `CCCCCCCCCCCCCCCC(=O)N[C@@H](CCC(=O)NCCCC[C@H](NC(=O)[C@H](CC(=O)O)NC(=O)[C@H](CO)NC(=O)[C@@H](NC(=O)[C@H](Cc1ccccc1)NC(=O)[C@@H](NC(=O)CNC(=O)[C@H](CCC(N)=O)NC(=O)[C@@H](CO)NC(=O)[C@@H](N)Cc1c[nH]cn1)[C@@H](C)O)[C@@H](C)O)C(=O)N[C@@H](CO)C(=O)N[C@@H](CCCCN)C(=O)N[C@@H](Cc1ccc(O)cc1)C(=O)N[C@@H](CC(C)C)C(=O)N[C@@H](CC(=O)O)C(=O)N[C@@H](CCC(=O)O)C(=O)N[C@@H](CCC(N)=O)C(=O)N[C@@H](C)C(=O)N[C@@H](C)C(=O)N[C@@H](CCCCN)C(=O)N[C@@H](CCC(=O)O)C(=O)N[C@@H](Cc1ccccc1)C(=O)N[C@H](C(=O)N[C@@H](CS)C(=O)N[C@@H](Cc1c[nH]c2ccccc12)C(=O)N[C@@H](CC(C)C)C(=O)N[C@@H](CC(C)C)C(=O)N[C@@H](CC(=O)O)C(=O)N[C@H](C(N)=O)[C@@H](C)O)[C@@H](C)CC)C(=O)O` [compound 64], on GIP receptor, the response was half-maximal at 2.82 nM (EC50).

Consider “51 (H[Aib]QGTFTSDYSKYLDEKRA[Aib]EFVC(40K‑TE PEG(4))WLL[Aib]GGPSSGAPPPS-NH2) [compound 51]”, for which the “EC50 (nM) at GIP receptor” value in the experiment with GIP receptor is given as “no activity”.

As to “47 (H[Aib]QGTFTSDYSKYLDEKRA[Aib]EFVC(PEG 40 kDa)WLLDGGPSSGAPPPS-NH2) [compound 47]”, the “EC50 (nM) at GIP receptor” value in the experiment with GIP receptor was “no activity”.

For the compound “52 (H[Aib]QGTFTSDYSKYLDEK[Aib]AKEFVC(PEG 40 kDa)WLLDT-NH2) [compound 52]”, the “EC50 (nM) at GIP receptor” value with GIP receptor is “no activity”.

With `CCCCCCCCCCCCCCCC(=O)N[C@@H](CCC(=O)NCCCC[C@H](NC(=O)[C@H](CC(=O)O)NC(=O)[C@H](CO)NC(=O)[C@@H](NC(=O)[C@H](Cc1ccccc1)NC(=O)[C@@H](NC(=O)CNC(=O)[C@H](CCC(N)=O)NC(=O)[C@@H](CO)NC(=O)[C@@H](N)Cc1c[nH]cn1)[C@@H](C)O)[C@@H](C)O)C(=O)N[C@@H](CO)C(=O)N[C@@H](CCCCN)C(=O)N[C@@H](Cc1ccc(O)cc1)C(=O)N[C@@H](CC(C)C)C(=O)N[C@@H](CC(=O)O)C(=O)N[C@@H](CCC(=O)O)C(=O)N[C@@H](CCC(N)=O)C(=O)N[C@@H](C)C(=O)N[C@@H](C)C(=O)N[C@@H](CCCCN)C(=O)N[C@@H](CCC(=O)O)C(=O)N[C@@H](Cc1ccccc1)C(=O)N[C@H](C(=O)N[C@@H](CS)C(=O)N[C@@H](Cc1c[nH]c2ccccc12)C(=O)N[C@@H](CC(C)C)C(=O)N[C@@H](CC(C)C)C(=O)N[C@@H](CC(=O)O)C(=O)N[C@H](C(=O)N[C@@H](CCC(=O)O)C(N)=O)[C@@H](C)O)[C@@H](C)CC)C(=O)O` [compound 65], at GIP receptor, the EC50 turned out to be 47.1 nM.

Consider `CC(C)C[C@H](NC(=O)[C@H](Cc1ccc(O)cc1)NC(=O)[C@H](CCCCN)NC(=O)[C@H](CO)NC(=O)[C@H](CCCCNC(=O)CC[C@H](NC(=O)CC12CC3CC(CC(C3)C1)C2)C(=O)O)NC(=O)[C@H](CC(=O)O)NC(=O)[C@H](CO)NC(=O)[C@@H](NC(=O)[C@H](Cc1ccccc1)NC(=O)[C@@H](NC(=O)CNC(=O)[C@H](CCC(N)=O)NC(=O)[C@@H](CO)NC(=O)[C@@H](N)Cc1c[nH]cn1)[C@@H](C)O)[C@@H](C)O)C(=O)N[C@@H](CC(=O)O)C(=O)N[C@@H](CCC(=O)O)C(=O)N[C@@H](CCCNC(=N)N)C(=O)N[C@@H](C)C(=O)N[C@@H](C)C(=O)N[C@@H](CCC(N)=O)C(=O)N[C@@H](CC(=O)O)C(=O)N[C@@H](Cc1ccccc1)C(=O)N[C@H](C(=O)N[C@@H](CCC(N)=O)C(=O)N[C@@H](Cc1c[nH]c2ccccc12)C(=O)N[C@@H](CC(C)C)C(=O)N[C@@H](CC(C)C)C(=O)N[C@@H](CC(=O)O)C(=O)N[C@H](C(N)=O)[C@@H](C)O)C(C)C` [compound 48], for which the EC50 on GLP-1 receptor (setting [2]) worked out at 0.039 nM; at glucagon receptor (setting [3]), 0.026 nM.

Consider “46 (H[Aib]QGTFTSDYSKYLD[Aib]KRA[Aib]EFVC(PEG 40 kDa)WLLDGGPSSGAPPPS-NH2) [compound 46]”, for which, in the experiment with GIP receptor, the “EC50 (nM) at GIP receptor” value is recorded as “no activity”.

With “13 (H[Aib]QGTFTSDYSKYLDEKRA[Aib]EFVC(PEG 40 kDa)WLLDT-NH2) [compound 13]”, the “EC50 (nM) at GIP receptor” value in the experiment with GIP receptor was “no activity”.

In the case of `CCCCCCCCCCCCCCCC(=O)N[C@@H](CCC(=O)NCCCC[C@H](NC(=O)[C@H](CC(=O)O)NC(=O)[C@H](CO)NC(=O)[C@@H](NC(=O)[C@H](Cc1ccccc1)NC(=O)[C@@H](NC(=O)CNC(=O)[C@H](CCC(N)=O)NC(=O)[C@@H](CO)NC(=O)[C@@H](N)Cc1c[nH]cn1)[C@@H](C)O)[C@@H](C)O)C(=O)N[C@@H](CO)C(=O)N[C@@H](CCCCN)C(=O)N[C@@H](Cc1ccc(O)cc1)C(=O)N[C@@H](CC(C)C)C(=O)N[C@@H](CC(=O)O)C(=O)N[C@@H](CCC(=O)O)C(=O)N[C@@H](CCCNC(=N)N)C(=O)N[C@@H](C)C(=O)N[C@@H](C)C(=O)N[C@@H](CCC(N)=O)C(=O)N[C@@H](CC(=O)O)C(=O)N[C@@H](Cc1ccccc1)C(=O)N[C@H](C(=O)N[C@@H](CCC(N)=O)C(=O)N[C@@H](Cc1c[nH]c2ccccc12)C(=O)N[C@@H](CC(C)C)C(=O)N[C@@H](CC(C)C)C(=O)N[C@@H](CC(=O)O)C(=O)NCC(=O)N[C@@H](CCCNC(=N)N)C(=O)NCC(N)=O)C(C)C)C(=O)O` [compound 19], the EC50 on GLP-1 receptor (setting [2]) turned out to be 0.002 nM; on glucagon receptor (setting [3]) it was 0.004 nM; on GIP receptor, 0.812 nM.

With “41 (H[Aib]QGTFTSDYSKYLDEKRA[Aib]EFVC(PEG 40 kDa)WLL[Aib]T-NH2) [compound 41]”, in the experiment with GIP receptor, the “EC50 (nM) at GIP receptor” value is listed as “no activity”.

For the compound “38 (H[Aib]QGTFTSDYSKYLD[Aib]KRA[Aib]EFVC(PEG 40 kDa)WLLDT-NH2) [compound 38]”, the “EC50 (nM) at GIP receptor” value with GIP receptor was “no activity”.
